Holding throughout (assay type): functional
The subject of experiment [1] is Rattus norvegicus. The experiment is described as follows: Antiinflammatory activity against carrageenan-induced paw edema rat model assessed as inhibition of hind paw swelling administered 1 hr before carrageenan challenge measured after 3 hrs by plethysmometer relative to control.
The species named for experiment [2] is Mus musculus. The experiment is described as follows: Analgesic activity in Swiss albino mouse assessed as duration of thermal-stimulus induced tail flick latency after 60 mins by tail immersion method (reference value: 3.01 +/- 0.04 seconds). A general note: Thermal pain tests record how soon the animal reacts.
The test system of experiment [3] is Rattus norvegicus. The experiment is described as follows: Antiinflammatory activity against carrageenan-induced paw edema rat model assessed as inhibition of hind paw swelling administered 1 hr before carrageenan challenge measured after 2 hrs by plethysmometer relative to control. In general terms: The carrageenan paw model is a standard test of acute inflammation.

Experiment [4] is filed under the species Mus musculus. The experiment is described as follows: Analgesic activity in Swiss albino mouse assessed as duration of thermal-stimulus induced tail flick latency after 90 mins by tail immersion method (reference value: 3.87 +/- 0.10 seconds).
Experiment [5] is filed under the species Mus musculus. The experiment is described as follows: Analgesic activity in Swiss albino mouse assessed as duration of thermal-stimulus induced tail flick latency after 30 mins by tail immersion method (reference value: 2.13 +/- 0.03 seconds).
For experiment [6], the system named is Rattus norvegicus. The experiment is described as follows: Antiinflammatory activity against carrageenan-induced paw edema rat model assessed as inhibition of hind paw swelling administered 1 hr before carrageenan challenge measured after 1 hr by plethysmometer relative to control.
The test system of experiment [7] is Rattus norvegicus. The experiment is described as follows: Antiinflammatory activity against carrageenan-induced paw edema rat model assessed as inhibition of hind paw swelling at 10 mg/kg administered 1 hr before carrageenan challenge measured after 3 hrs by plethysmometer relative to control.
For experiment [8], the system named is Mus musculus. The experiment is described as follows: Analgesic activity in Swiss albino mouse assessed as duration of thermal-stimulus induced tail flick latency at 10 mg/kg after 90 mins by tail immersion method (reference value: 3.87 +/- 0.10 seconds).
For experiment [9], the system named is Mus musculus. The experiment is described as follows: Analgesic activity in Swiss albino mouse assessed as duration of thermal-stimulus induced tail flick latency at 10 mg/kg after 60 mins by tail immersion method (reference value: 3.01 +/- 0.04 seconds).
The subject of experiment [10] is Mus musculus. The experiment is described as follows: Analgesic activity in Swiss albino mouse assessed as duration of thermal-stimulus induced tail flick latency at 10 mg/kg after 30 mins by tail immersion method (reference value: 2.13 +/- 0.03 seconds).
The subject of experiment [11] is Rattus norvegicus. The experiment is described as follows: Antiinflammatory activity against carrageenan-induced paw edema rat model assessed as inhibition of hind paw swelling at 10 mg/kg administered 1 hr before carrageenan challenge measured after 1 hr by plethysmometer relative to control.
Experiment [12] concerns Rattus norvegicus. The experiment is described as follows: Antiinflammatory activity against carrageenan-induced paw edema rat model assessed as inhibition of hind paw swelling at 10 mg/kg administered 1 hr before carrageenan challenge measured after 2 hrs by plethysmometer relative to control.

For orientation: inhibition in vivo means the percentage by which the read-out fell short of the control.

In the case of `O=C(CN1C(=O)c2ccccc2C1=O)N/N=C/c1ccc(O)cc1`, the “inhibition (INH)” value was 50.6% in the experiment on Rattus norvegicus [1], 43.4% in the experiment on Rattus norvegicus [3] and 23.2% in the experiment on Rattus norvegicus [6]. The Time in the experiment listed under Mus musculus [2] is on record as 3.83 s; in the experiment listed under Mus musculus [4] it was 4.12 s; in the experiment filed under Mus musculus [5] it was 3.42 s.

For `COc1cccc(/C=N/NC(=O)CN2C(=O)c3ccccc3C2=O)c1`, the “inhibition (INH)” value in the experiment with Rattus norvegicus [1] was 61.4%; with Rattus norvegicus [3], 49.2%; in the experiment on Rattus norvegicus [6], 28.5%. In addition, the Time was determined as 3.94 s in the experiment listed under Mus musculus [2], 4.92 s in the experiment listed under Mus musculus [4] and 3.21 s in the experiment filed under Mus musculus [5].

In the case of `O=C(CN1C(=O)c2ccccc2C1=O)N/N=C/c1ccccc1`, the “inhibition (INH)” value in the experiment on Rattus norvegicus [1] is reported as 17.3%; with Rattus norvegicus [3] it was 15.9%; with Rattus norvegicus [6], 14.2%. The figures for the Time in the experiment listed under Mus musculus [2], in the experiment filed under Mus musculus [4] and in the experiment listed under Mus musculus [5] were 3.22 s, 3.89 s and 2.83 s, respectively.

Take `Cc1ccc(/C=N/NC(=O)CN2C(=O)c3ccccc3C2=O)cc1`: the results for the “inhibition (INH)” value in the experiment with Rattus norvegicus [1], with Rattus norvegicus [3] and in the experiment on Rattus norvegicus [6] were 25.3%, 24.6% and 17.8%, respectively. Besides, the values for the Time in the experiment listed under Mus musculus [2], in the experiment filed under Mus musculus [4] and in the experiment listed under Mus musculus [5] were 3.86 s, 4.5 s and 3.32 s, respectively.

As for `O=C([O-])Cc1ccccc1Nc1c(Cl)cccc1Cl.[Na+]` [DICLOFENAC SODIUM], the results for the inhibition in vivo at 10 mg/kg in the experiment with Rattus norvegicus [7], with Rattus norvegicus [11] and in the experiment on Rattus norvegicus [12] were 68%, 39.8% and 60.8%, respectively. The Time was found to be 10.93 s in the experiment on Mus musculus [8], 5.06 s in the experiment on Mus musculus [9] and 3.06 s with Mus musculus [10].

Turning to `O=C(CN1C(=O)c2ccccc2C1=O)N/N=C/c1ccccc1[N+](=O)[O-]`, the entries for the “inhibition (INH)” value in the experiment with Rattus norvegicus [1], with Rattus norvegicus [3] and in the experiment with Rattus norvegicus [6] were 57.3%, 49.2% and 30.3%, respectively. In addition, the values for the Time in the experiment filed under Mus musculus [2], in the experiment listed under Mus musculus [4] and in the experiment listed under Mus musculus [5] were 6.29 s, 6.88 s and 5.35 s, respectively.

`COc1cc(/C=N/NC(=O)CN2C(=O)c3ccccc3C2=O)ccc1O`: the “inhibition (INH)” value turned out to be 64% in the experiment on Rattus norvegicus [1], 53.6% in the experiment with Rattus norvegicus [3] and 32.1% in the experiment with Rattus norvegicus [6]. The Time in the experiment listed under Mus musculus [2] was 6.22 s; in the experiment filed under Mus musculus [4], 9.09 s; in the experiment filed under Mus musculus [5] it was 4.53 s.

`O=C(CN1C(=O)c2ccccc2C1=O)N/N=C/c1ccc([N+](=O)[O-])cc1`: the “inhibition (INH)” value was determined as 54.6% with Rattus norvegicus [1], 43.4% in the experiment on Rattus norvegicus [3] and 19.6% in the experiment with Rattus norvegicus [6]. Further, the figures for the Time in the experiment filed under Mus musculus [2], in the experiment filed under Mus musculus [4] and in the experiment filed under Mus musculus [5] were 6.45 s, 6.83 s and 5.39 s, respectively.

For `O=C(CN1C(=O)c2ccccc2C1=O)N/N=C/c1ccc(Cl)cc1`, the “inhibition (INH)” value in the experiment with Rattus norvegicus [1] amounted to 58.6%; in the experiment with Rattus norvegicus [3], 47.8%; in the experiment on Rattus norvegicus [6] it was 26.7%. Further, the Time in the experiment filed under Mus musculus [2] is given as 7.13 s; in the experiment filed under Mus musculus [4], 8.91 s; in the experiment listed under Mus musculus [5], 5.61 s.

For the compound `COc1cc(/C=N/NC(=O)CN2C(=O)c3ccccc3C2=O)cc(OC)c1OC`, the “inhibition (INH)” value with Rattus norvegicus [1] came to 49.4%; with Rattus norvegicus [3] it was 40.5%; with Rattus norvegicus [6] it was 26.7%. The Time in the experiment listed under Mus musculus [2] was 4.04 s; in the experiment filed under Mus musculus [4] it was 4.21 s; in the experiment listed under Mus musculus [5], 3.83 s.
